{"source": "patent US20140371237A1", "about": "“p19Arf, HMGA2 and MDM2 For Use in the Diagnosis and Treatment of Aberrant Cell Growth” (University of Bremen, priority 2010, published 2014)", "assay_type_in_all_cases": "cell-based, human", "key": {"[1]": {"test_system": "leiomyoma cells", "test": "Treatment of leiomyoma cells with RITA, qRT-PCR", "conditions": "cells of fibroids, 10 μM RITA, 72 h", "description": "For treatment with RITA (Biomol, Hamburg, Germany) cells were plated in Leighton-tubes at a density of 200,000 on 10 mm×50 mm cover slips 24 h before incubation with RITA. Cells were treated with 1 μM and 10 μM RITA for 72 h. As controls cells were cultured in medium 199 supplemented with 20% FCS without RITA for 72 h. Relative quantification of transcription levels was carried out by real-time PCR analyses using the Applied Biosystems 7300 real-time PCR system (Applied Biosystems, Darmstadt, Germany). Commercially available gene expression assays (Applied Biosystems, Darmstadt, Germany) were used for quantification of mRNA of human BAX (Hs00180269_m1), p21 (Hs99999142), β-Gal (Hs01035162) and Ki67 (Hs00606991_m1). HPRT served as endogenous control. All qRT-PCR experiments were done in triplicate."}, "[2]": {"test_system": "explants of fibroids and matching myometrium", "test": "Treatment of explants of fibroids and matching myometrium with RITA, qRT-PCR", "conditions": "explants in short term culture, RITA 10 μM, 72 h", "description": "For the experiments explants from a leiomyoma with a clonal complex chromosomal rearrangement involving chromosome 10 along with matching myometrium were taken during surgery and immediately transferred into sterile Hank's solution. For treatment with RITA (Biomol, Hamburg, Germany) tissue samples were minced into small pieces of approximately 0.5 cm diameter and incubated in medium 199 supplemented with 20% FCS and RITA (10 μM) for 72 h. As controls tissue explants were incubated in medium 199 supplemented with 20% FCS without RITA for 72 h. Relative quantification of transcription levels was carried out by real-time PCR analyses using the Applied Biosystems 7300 real-time PCR system (Applied Biosystems, Darmstadt, Germany). Commercially available gene expression assays (Applied Biosystems, Darmstadt, Germany) were used for quantification of mRNA of human BAX (Hs00180269_m1), p21 (Hs99999142), β-Gal (Hs01035162) and Ki67 (Hs00606991_m1). HPRT served as endogenous control. All qRT-PCR experiments were done in triplicate."}, "[3]": {"test_system": "leiomyoma cells", "test": "Treatment of leiomyoma cells with Tenovin-1, qRT-PCR of p21 and BAX", "description": "For treatment with Tenovin-1 (Biomol, Hamburg, Germany) cells were plated in Leighton-tubes at a density of 200,000 on 10 mm×50 mm cover slips 24 h before incubation with Tenovin-1. Cells were treated with 3 μM and 10 μM Tenovin-1 for 24 and for 72 h, respectively. As controls cells were cultured in medium 199 supplemented with 20% FCS without Tenovin-1 for 24 and for 72 h, respectively."}}}
{"smiles": "OCc1ccc(-c2ccc(-c3ccc(CO)s3)o2)s1", "note": "[RITA, 2,5-bis-(5-Hydroxymethyl-2-thienyl)-furan]", "values": [{"measurement": "expression of BAX", "setting": "[1]", "value": "significant increase"}, {"measurement": "expression of Ki-67", "setting": "[1]", "value": "decrease"}, {"measurement": "expression of p21", "setting": "[1]", "value": "significant increase"}, {"measurement": "expression of β-galactosidase", "setting": "[1]", "value": "significant increase"}, {"measurement": "expression of BAX", "setting": "[2]", "value": "significant increase"}, {"measurement": "expression of p21", "setting": "[2]", "value": "significant increase"}]}
{"smiles": "CC(=O)Nc1ccc(NC(=S)NC(=O)c2ccc(C(C)(C)C)cc2)cc1", "note": "[Tenovin-1]", "values": [{"measurement": "expression of p21", "setting": "[3]; 3 μM and 10 μM, 24 h and 72 h, p<0.01 with both concentrations", "value": "significant increase"}, {"measurement": "expression of BAX", "setting": "[3]; significant at 24 h with 3 μM and 10 μM (p<0.001) and 72 h with 10 μM (p<0.01)", "value": "significant increase"}]}
